Experimental data taken from PubChem BioAssay AID977613 (Broad Institute, 2014).
Calls of active or inactive are those of the source. How the calls were made is not given here.

The compounds below were run on Broad 7084-01 inhibitor HTS, set 2 (assay: single-concentration hits, screen 7084 set 2 (AID 977613);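 further: host cells are infected with parasite promastigotes that become internalized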).

SMILES	active concentration
CC1C=NC(S(=O)(=O)N2CC[C@@H]3[C@H](CO)N(C)c4ccc(-c5ccccc5F)cc4[C@@H]32)=N1 (stereo not given in full)	> 10 µM (inactive)
O=C1CNC[C@H]2[C@@H](c3ccc(C4=CCCC4)cc3)[C@@H](CO)N12	> 10 µM (inactive)
COc1ccc2c3c(n(C)c2c1)[C@H](CO)N(C(=O)Nc1ccc(F)cc1)CC31CN(C(=O)Cc2ccncc2)C1	> 10 µM (inactive)
Cc1nn(C)cc1NC(=O)C[C@@H]1CC[C@H]2[C@H](COc3ccc(NC(=O)C4CCOCC4)cc3C(=O)N2C)O1	> 10 µM (inactive)
O=C(C[C@@H]1CC[C@@H]2[C@H](COC[C@H](O)CN2Cc2ccc3c(c2)OCO3)O1)Nc1ccccc1	> 10 µM (inactive)
O=C(c1cccnc1)N1C[C@H]2[C@@H](c3ccccc31)[C@@H](CO)N2C(=O)CN1CCOCC1	> 10 µM (inactive)
O=C(C[C@@H]1CC[C@@H]2[C@H](COC[C@@H](O)CN2Cc2nccs2)O1)NCc1ccccc1	> 10 µM (inactive)
O=C(C[C@@H]1CC[C@H]2[C@@H](COC[C@@H](O)CN2C(=O)c2ccc3c(c2)OCO3)O1)NC1CCC1	> 10 µM (inactive)
COc1ccc2c3c([nH]c2c1)[C@@H](CO)N(S(C)(=O)=O)CC31CN(CC2CCOCC2)C1	> 10 µM (inactive)
O=C(Nc1ccccc1)N1CC(=O)N2[C@H](CO)[C@@H](c3ccc(C#CC4CCCCC4)cc3)[C@@H]2C1	> 10 µM (inactive)
CN(C)C(=O)C[C@@H]1CC[C@@H]2[C@H](COC[C@H](O)CN2CC2CCCC2)O1	> 10 µM (inactive)
Cc1ccccc1S(=O)(=O)N1CCCCN2[C@H](C1)[C@H](c1ccc(C#CCN(C)C)cc1)[C@@H]2CO	> 10 µM (inactive)
COc1cccc(S(=O)(=O)N2CCCCN3[C@H](CO)[C@H](c4ccc(C#CCC(C)C)cc4)[C@@H]3C2)c1	> 10 µM (inactive)
COCC(=O)N1[C@@H](C#N)[C@@H](c2ccccc2-c2cccc(C)c2)[C@@H]1CO	> 10 µM (inactive)
CN1CCN(C(=O)C[C@@H]2CC[C@H]3[C@@H](COC[C@@H](O)CN3C(=O)C3CC3)O2)CC1	> 10 µM (inactive)
O=C(NCc1cc(F)cc(F)c1)[C@@H]1[C@@H](CO)[C@@H]2Cn3c(cccc3=O)[C@H]1N2	> 10 µM (inactive)
COc1ccc2c3c([nH]c2c1)[C@H](CO)N(S(=O)(=O)c1ccc(C)cc1)CC31CCN(Cc2nccs2)CC1	> 10 µM (inactive)
CN1C(=O)c2cc(NS(C)(=O)=O)ccc2OC[C@H]2O[C@@H](CC(=O)NC3CCCCC3)CC[C@@H]21	> 10 µM (inactive)
O=C(C[C@H]1CC[C@H]2[C@@H](COC[C@@H](O)CN2CC2CC2)O1)NCc1ccc(Cl)cc1	> 10 µM (inactive)
COc1ccc(CN2[C@H](CO)[C@H]3c4ccccc4N(C(=O)Nc4ccc(F)cc4)C[C@H]32)cc1	> 10 µM (inactive)
COc1cccc(CN2CC3(C2)[C@H](c2ccccc2)[C@H](CO)N3C(=O)Cc2ccccc2)c1	> 10 µM (inactive)
C/C=C/c1ccc([C@H]2[C@@H](CO)N3C(=O)CN(Cc4ccc(F)cc4)C[C@@H]23)cc1	> 10 µM (inactive)
O=C(C[C@@H]1CC[C@@H]2[C@H](COC[C@@H](O)CN2S(=O)(=O)c2cccc(Cl)c2)O1)Nc1ccc(-c2ccccc2)cc1	> 10 µM (inactive)
Cc1ccc(NC(=O)Nc2ccc3c(c2)C(=O)N(C)[C@@H]2CC[C@H](CC(=O)NCC(F)(F)F)O[C@@H]2CO3)cc1	> 10 µM (inactive)

SMILES	active concentration
O=S(=O)(c1ccc(F)cc1)N1C[C@H]2[C@@H](c3ccccc31)[C@H](CO)N2Cc1ccc2c(c1)OCO2	> 10 µM (inactive)
COc1ccc(CN2[C@@H]3CN(C(=O)Nc4ccc(F)cc4)c4ccccc4[C@@H]3[C@@H]2CO)cc1	> 10 µM (inactive)
C[C@@H](O)C#Cc1ccc([C@@H]2[C@H](CO)N3CCCCN(C(=O)c4ccc5c(c4)OCO5)C[C@@H]23)cc1	> 10 µM (inactive)
CN1C(=O)c2cc(NC(=O)c3cccc(F)c3)ccc2OC[C@H]2O[C@H](CC(=O)NCC3CCCCC3)CC[C@@H]21	> 10 µM (inactive)
COc1ccc2c3c([nH]c2c1)[C@@H](CO)N(C(=O)NC(C)C)CC31CCN(C(=O)c2cnccn2)CC1	> 10 µM (inactive)
O=C(C1CCC1)N1CC2(C1)[C@H](c1ccccc1)[C@H](CO)N2Cc1cccnc1	> 10 µM (inactive)
O=C(C[C@H]1CC[C@H]2[C@@H](COC[C@@H](O)CN2CCc2ccccc2)O1)NCc1ccc(F)cc1	> 10 µM (inactive)
O=C(C[C@@H]1CC[C@@H]2[C@H](COC[C@@H](O)CN2Cc2ccccc2)O1)NCCc1ccccc1	> 10 µM (inactive)
CS(=O)(=O)N1C[C@H](O)COC[C@@H]2O[C@H](CC(=O)NCc3ccc(-c4ccccc4)cc3)CC[C@H]21	> 10 µM (inactive)
CCCNC(=O)N1[C@H](CO)[C@@H](c2ccccc2-c2ccccc2F)[C@@H]1C#N	> 10 µM (inactive)
CN(C)C(=O)c1cccc(-c2ccc([C@H]3[C@H](CO)N4CCCCN(CC5CCOCC5)C[C@@H]34)cc2)c1	> 10 µM (inactive)
CN(C)C(=O)c1cccc(-c2ccc([C@H]3[C@H](CO)N4C(=O)CN(C(=O)C5CCC5)C[C@@H]34)cc2)c1	> 10 µM (inactive)
COc1ccc2c3c(n(C)c2c1)[C@H](CO)N(CC1CCOCC1)CC31CCN(C(=O)CN(C)C)CC1	> 10 µM (inactive)
O=C(Cc1ccccn1)N1CC2(C1)[C@H](c1ccccc1)[C@@H](CO)N2C(=O)c1cccnc1	> 10 µM (inactive)
O=C(C[C@@H]1CC[C@H]2[C@@H](COC[C@H](O)CN2CCC(F)(F)F)O1)NCC1CC1	> 10 µM (inactive)
C/C=C/c1ccccc1[C@H]1[C@@H](CO)N(C(=O)NC2CCCCC2)[C@H]1C#N	> 10 µM (inactive)
O=C(CN1CCOCC1)N1CC(=O)N2[C@H](CO)[C@@H](c3ccc(-c4cccc(F)c4)cc3)[C@@H]2C1	> 10 µM (inactive)
Cc1noc(C)c1NC(=O)N1C[C@@H](O)COC[C@H]2O[C@H](CC(=O)NCC3CCCCC3)CC[C@@H]21	> 10 µM (inactive)
O=C(C1CCOCC1)N1CC(=O)N2[C@@H](CO)[C@H](c3ccc(-c4cccnc4)cc3)[C@@H]2C1	> 10 µM (inactive)
CN1C[C@H](O)COC[C@H]2O[C@H](CC(=O)NC3CCCC3)CC[C@@H]21	> 10 µM (inactive)
CC=Cc1ccc2n(c1=O)C[C@H]1[C@H](CO)[C@@H](C(=O)NCCC)N(Cc3cocn3)[C@@H]21 (mixture of isomers)	> 10 µM (inactive)
CCCNC(=O)N1CC(=O)N2[C@H](C1)[C@H](c1ccc(-c3ccc(F)cc3)cc1)[C@@H]2CO	> 10 µM (inactive)
COc1ccc2c3c([nH]c2c1)[C@@H](CO)NCC31CN(C(=O)Nc2ccc3c(c2)OCO3)C1	> 10 µM (inactive)
CCCC#Cc1ccc([C@@H]2[C@H]3CN(C(=O)c4cccnc4)CC(=O)N3[C@H]2CO)cc1	> 10 µM (inactive)

SMILES	active concentration
O=C(c1ccncc1)N1CC2(C1)[C@@H](c1ccccc1)[C@@H](CO)N2CC1CCOCC1	> 10 µM (inactive)
O=C(C[C@H]1CC[C@H]2[C@@H](COC[C@H](O)CN2Cc2cccc(F)c2)O1)NCc1cccc(F)c1	> 10 µM (inactive)
CCN1CC(=O)N2[C@H](CO)[C@@H](c3ccc(Br)cc3)[C@H]2C1	> 10 µM (inactive)
O=C(c1ccc2c(c1)OCO2)N1C[C@H]2[C@@H](c3ccccc31)[C@@H](CO)N2C(=O)CC1CC1	> 10 µM (inactive)
CN(C)CC(=O)N1[C@H](CO)[C@H](c2ccccc2-c2ccccc2F)[C@@H]1C#N	> 10 µM (inactive)
CN1c2ccc(Br)cc2[C@H]2[C@H](CCN2S(=O)(=O)c2cccc(F)c2)[C@@H]1CO	> 10 µM (inactive)
N#C[C@H]1[C@@H](c2ccccc2C2=CCCC2)[C@@H](CO)N1S(=O)(=O)c1ccccc1	> 10 µM (inactive)
COc1ccc2c3c(n(C)c2c1)[C@@H](CO)N(C(=O)Cc1ccccc1)CC31CN(C)C1	> 10 µM (inactive)
O=C(C[C@@H]1CC[C@@H]2[C@H](COC[C@@H](O)CN2Cc2ccc(Cl)cc2)O1)NCc1ccccc1Cl	> 10 µM (inactive)
O=C(C[C@H]1CC[C@H]2[C@@H](COC[C@H](O)CN2C(=O)Nc2cc(Cl)cc(Cl)c2)O1)NCC1CCCCC1	> 10 µM (inactive)
COCC(=O)N1CC2(C1)CN(Cc1nccs1)[C@@H](CO)c1c2c2ccc(OC)cc2n1C	> 10 µM (inactive)
CN(C)CC#Cc1ccc([C@@H]2[C@@H](CO)N3C(=O)CN(C(=O)CN(C)C)C[C@H]23)cc1	> 10 µM (inactive)
O=C(C[C@H]1CC[C@@H]2[C@H](COC[C@@H](O)CN2CC2CC2)O1)NCC1CC1	> 10 µM (inactive)
CN1C(=O)c2cc(NC(=O)c3ccccc3Cl)ccc2OC[C@H]2O[C@H](CC(=O)NCC(F)(F)F)CC[C@H]21	> 10 µM (inactive)
N#C[C@@H]1[C@H](c2ccccc2C2=CCCCC2)[C@H](CO)N1C(=O)Nc1ccccc1F	> 10 µM (inactive)
COc1cccc(C#Cc2ccc([C@@H]3[C@@H](CO)N4C(=O)CN(C(=O)Cc5cccnc5)C[C@H]34)cc2)c1	> 10 µM (inactive)
O=S(=O)(c1ccc(F)cc1)N1CCCCN2[C@H](CO)[C@H](c3ccc(-c4cncnc4)cc3)[C@H]2C1	> 10 µM (inactive)
CN1C[C@H]2[C@@H](c3ccccc31)[C@@H](CO)N2C(=O)Nc1cccc(F)c1	> 10 µM (inactive)
O=C(C[C@@H]1CC[C@@H]2[C@H](COC[C@@H](O)CN2CC2CC2)O1)NCC1CC1	> 10 µM (inactive)
CC=Cc1ccc2n(c1=O)C[C@H]1[C@H](CO)[C@@H](C(=O)NCC)[C@@H]2N1Cc1cccc(Cl)c1 (mixture of isomers)	> 10 µM (inactive)
CCCNC(=O)N1[C@H](C#N)[C@H](c2ccccc2-c2ccccc2F)[C@@H]1CO	> 10 µM (inactive)
O=C(C1CCCCC1)N1CC(=O)N2[C@@H](CO)[C@@H](c3ccc(-c4ccccc4F)cc3)[C@@H]2C1	> 10 µM (inactive)
